Results published in US20060069132A1, “Azolecarboxamide herbicides” (priority 2004, published 2006).

Legend:
barnyardgrass [1] = assay: Test A pre-/postemergence herbicide test; type: in vivo, Echinochloa crus-galli
In short: (§1)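 Greenhouse injury scoring (0–100, complete control = 100) at approximately ten days follows simultaneous pre- and postemergence application. Soil received a directed spray after seeding; seedlings of 2–10 cm at the one- to two-leaf stage were sprayed to runoff.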

large crabgrass [2] = assay: Test A pre-/postemergence herbicide test; type: in vivo, Digitaria sanguinalis
In short: as §1

giant foxtail [3] = assay: Test A pre-/postemergence herbicide test; type: in vivo, Setaria faberi
In short: as §1

morningglory [4] = assay: Test A pre-/postemergence herbicide test; type: in vivo, Ipomoea spp.
In short: as §1

redroot pigweed = assay: Test A pre-/postemergence herbicide test; type: in vivo, Amaranthus retroflexus
In short: as §1

velvetleaf [5] = assay: Test A pre-/postemergence herbicide test; type: in vivo, Abutilon theophrasti
In short: as §1

barnyardgrass [6] = assay: Test B pre-/postemergence herbicide test; type: in vivo, Echinochloa crus-galli; details: for Plant response rating, Barnyardgrass: preemergence; for Barnyardgrass plant response rating: postemergence, visual rating, scale 0 (no effect) to 100 (complete control)
In short: (§2)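 Seeds were planted and treated preemergence with compounds formulated in a non-phytotoxic solvent mixture containing surfactant, while plants at the 1- to 4-leaf stage (2 to 18 cm) received postemergence sprays. Flooded paddy plants were grown to the 2-leaf stage. After 13 to 15 days in a greenhouse, injury was visually rated 0–100 against untreated controls.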

Surinam grass = assay: Test B pre-/postemergence herbicide test; type: in vivo, Urochloa decumbens; details: for Plant response rating, Surinam Grass: preemergence; for Surinam Grass plant response rating: postemergence, visual rating, scale 0 (no effect) to 100 (complete control)
In short: (§3)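 Formulation: non-phytotoxic solvent mix with surfactant. Timing: preemergence on seed and postemergence on 2–18 cm plants, applied concurrently. Readout after 13–15 d greenhouse: visual 0–100 control rating against controls.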

cocklebur = assay: Test B pre-/postemergence herbicide test; type: in vivo, Xanthium strumarium; details: for Plant response rating, Cocklebur: preemergence; for Cocklebur plant response rating: postemergence, visual rating, scale 0 (no effect) to 100 (complete control)
In short: as §2

corn = assay: Test B pre-/postemergence herbicide test; type: in vivo, Zea mays; details: for Plant response rating, Corn: preemergence; for Corn plant response rating: postemergence, visual rating, scale 0 (no effect) to 100 (complete control)
In short: as §3

large crabgrass [7] = assay: Test B pre-/postemergence herbicide test; type: in vivo, Digitaria sanguinalis; details: for Plant response rating, Crabgrass, Large: preemergence; for Crabgrass, Large plant response rating: postemergence, visual rating, scale 0 (no effect) to 100 (complete control)
In short: as §3

giant foxtail [8] = assay: Test B pre-/postemergence herbicide test; type: in vivo, Setaria faberi; details: for Plant response rating, Foxtail, Giant: preemergence; for Foxtail, Giant plant response rating: postemergence, visual rating, scale 0 (no effect) to 100 (complete control)
In short: as §3

lambsquarters = assay: Test B pre-/postemergence herbicide test; type: in vivo, Chenopodium album; details: for Plant response rating, Lambsquarters: preemergence; for Lambsquarters plant response rating: postemergence, visual rating, scale 0 (no effect) to 100 (complete control)
In short: as §3

morningglory [9] = assay: Test B pre-/postemergence herbicide test; type: in vivo, Ipomoea coccinea; details: for Plant response rating, Morningglory: preemergence; for Morningglory plant response rating: postemergence, visual rating, scale 0 (no effect) to 100 (complete control)
In short: as §2

pigweed = assay: Test B pre-/postemergence herbicide test; type: in vivo, Amaranthus retroflexus; details: for Plant response rating, Pigweed: preemergence; for Pigweed plant response rating: postemergence, visual rating, scale 0 (no effect) to 100 (complete control)
In short: as §3

rice [10] = assay: Test B pre-/postemergence herbicide test; type: in vivo, Oryza sativa; details: 500 g ai/ha; visual rating 0-100, 0 no effect, 100 complete control; preemergence
In short: as §3

velvetleaf [11] = assay: Test B pre-/postemergence herbicide test; type: in vivo, Abutilon theophrasti; details: for Plant response rating, Velvetleaf: preemergence; for Velvetleaf plant response rating: postemergence, visual rating, scale 0 (no effect) to 100 (complete control)
In short: as §3

blackgrass = assay: Test B postemergence herbicide test; type: in vivo, Alopecurus myosuroides; details: postemergence, visual rating, scale 0 (no effect) to 100 (complete control)
In short: (§4)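 Postemergence plants were sprayed with formulated test chemicals at 2 to 18 cm height (1- to 4-leaf stage); paddy species were grown to the 2-leaf stage. After 13 to 15 days in a greenhouse, injury was rated visually against untreated controls on a 0–100 scale (0 = no effect, 100 = complete control).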

wheat = assay: Test B postemergence herbicide test; type: in vivo, Triticum aestivum; set-up: key to Wheat plant response rating: 0 = no effect, 100 = complete control; details: postemergence, visual rating, scale 0 (no effect) to 100 (complete control)
In short: as §4

wild oat = assay: Test B postemergence herbicide test; type: in vivo, Avena fatua; details: postemergence, visual rating, scale 0 (no effect) to 100 (complete control)
In short: as §4

rice [12] = assay: Test B flooded paddy test; type: in vivo, Oryza sativa; details: 1000 g ai/ha, visual rating, scale 0 to 100 (0 no effect, 100 complete control), 13 to 15 days
In short: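 Scale 0–100: zero equals no visible effect, 100 complete control, judged by eye relative to controls. Timing: 13 to 15 days in greenhouse post-treatment. Growth stage at spraying: two leaves (paddy) or one to four leaves, 2–18 cm (postemergence).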

[13] = tested on: small flower umbrella sedge; assay: Test B flooded paddy test; type: in vivo, Cyperus difformis; details: 1000 g ai/ha, visual rating, scale 0 to 100 (0 no effect, 100 complete control), 13 to 15 days
In short: as §4

ducksalad = assay: Test B flooded paddy test; type: in vivo, Heteranthera limosa; details: 1000 g ai/ha, visual rating, scale 0 to 100 (0 no effect, 100 complete control), 13 to 15 days
In short: as §4

barnyardgrass [14] = assay: Test B flooded paddy test; type: in vivo, Echinochloa crus-galli; details: 1000 g ai/ha, visual rating, scale 0 to 100 (0 no effect, 100 complete control), 13 to 15 days
In short: as §4

[15] = Postemergence, 250 g ai/ha, 0 to 100 scale, 0 no effect, 100 complete control
[16] = Postemergence, 1000 g ai/ha, 0 to 100 scale, 0 no effect, 100 complete control
[17] = Preemergence, 1000 g ai/ha, visual rating, 0 to 100 scale (0 no effect, 100 complete control)
[18] = preemergence, 250 g ai/ha, visual injury, 0 to 100 scale (0 no effect, 100 complete control)
[19] = 500 g ai/ha, visual rating 0-100, 0 no effect, 100 complete control
[20] = 125 g ai/ha, 0 to 100 scale, 0 is no effect, 100 is complete control

CC(C)(C)c1cc(C(=O)Nc2cccc(SC(F)(F)F)c2)n(CCF)n1 [Compound 132]
Barnyardgrass plant response rating (barnyardgrass [1]; [15]): 20
Plant response rating, Barnyardgrass (barnyardgrass [1]; [16]): 30
Barnyardgrass plant response rating (barnyardgrass [1]; [17]): 10
Barnyardgrass plant response rating (barnyardgrass [1]; [18]): 0
Crabgrass, Large plant response rating (large crabgrass [2]; [15]): 20
Plant response rating, Crabgrass, Large (large crabgrass [2]; [16]): 25
Crabgrass, Large plant response rating (large crabgrass [2]; [17]): 35
Crabgrass, Large plant response rating (large crabgrass [2]; [18]): 20
Foxtail, Giant plant response rating (giant foxtail [3]; [15]): 15
Plant response rating, Foxtail, Giant (giant foxtail [3]; [16]): 20
Foxtail, Giant plant response rating (giant foxtail [3]; [17]): 40
Foxtail, Giant plant response rating (giant foxtail [3]; [18]): 25
Morningglory plant response rating (morningglory [4]; [15]): 10
Plant response rating, Morningglory (morningglory [4]; [16]): 20
Morningglory plant response rating (morningglory [4]; [17]): 10
Morningglory plant response rating (morningglory [4]; [18]): 5
Pigweed plant response rating (redroot pigweed; [15]): 75
Plant response rating, Pigweed (redroot pigweed; [16]): 65
Pigweed plant response rating (redroot pigweed; [17]): 40
Pigweed plant response rating (redroot pigweed; [18]): 30
Velvetleaf plant response rating (velvetleaf [5]; [15]): 20
Plant response rating, Velvetleaf (velvetleaf [5]; [16]): 30
Velvetleaf plant response rating (velvetleaf [5]; [17]): 20
Velvetleaf plant response rating (velvetleaf [5]; [18]): 15
Plant response rating, Barnyardgrass (barnyardgrass [6]; [19]): 50
Barnyardgrass plant response rating (barnyardgrass [6]; 125 g ai/ha): 50
Barnyardgrass plant response rating (barnyardgrass [6]; 500 g ai/ha): 60
Plant response rating, Barnyardgrass (barnyardgrass [6]; [20]): 10
Plant response rating, Surinam Grass (Surinam grass; [19]): 70
Surinam Grass plant response rating (Surinam grass; 125 g ai/ha): 40
Surinam Grass plant response rating (Surinam grass; 500 g ai/ha): 60
Plant response rating, Surinam Grass (Surinam grass; [20]): 40
Plant response rating, Cocklebur (cocklebur; [19]): 0
Cocklebur plant response rating (cocklebur; 125 g ai/ha): 90
Cocklebur plant response rating (cocklebur; 500 g ai/ha): 90
Plant response rating, Cocklebur (cocklebur; [20]): 0
Plant response rating, Corn (corn; [19]): 10
Corn plant response rating (corn; 125 g ai/ha): 20
Corn plant response rating (corn; 500 g ai/ha): 20
Plant response rating, Corn (corn; [20]): 10
Plant response rating, Crabgrass, Large (large crabgrass [7]; [19]): 100
Crabgrass, Large plant response rating (large crabgrass [7]; 125 g ai/ha): 30
Crabgrass, Large plant response rating (large crabgrass [7]; 500 g ai/ha): 40
Plant response rating, Crabgrass, Large (large crabgrass [7]; [20]): 90
Plant response rating, Foxtail, Giant (giant foxtail [8]; [19]): 80
Foxtail, Giant plant response rating (giant foxtail [8]; 125 g ai/ha): 30
Foxtail, Giant plant response rating (giant foxtail [8]; 500 g ai/ha): 40
Plant response rating, Foxtail, Giant (giant foxtail [8]; [20]): 30
Plant response rating, Lambsquarters (lambsquarters; [19]): 90
Lambsquarters plant response rating (lambsquarters; 125 g ai/ha): 100
Lambsquarters plant response rating (lambsquarters; 500 g ai/ha): 100
Plant response rating, Lambsquarters (lambsquarters; [20]): 60
Plant response rating, Morningglory (morningglory [9]; [19]): 20
Morningglory plant response rating (morningglory [9]; 125 g ai/ha): 60
Morningglory plant response rating (morningglory [9]; 500 g ai/ha): 70
Plant response rating, Morningglory (morningglory [9]; [20]): 10
Plant response rating, Pigweed (pigweed; [19]): 100
Pigweed plant response rating (pigweed; 125 g ai/ha): 70
Pigweed plant response rating (pigweed; 500 g ai/ha): 90
Plant response rating, Pigweed (pigweed; [20]): 100
Plant response rating, Rice (rice [10]): 0
Plant response rating, Velvetleaf (velvetleaf [11]; [19]): 70
Velvetleaf plant response rating (velvetleaf [11]; 125 g ai/ha): 60
Velvetleaf plant response rating (velvetleaf [11]; 500 g ai/ha): 60
Plant response rating, Velvetleaf (velvetleaf [11]; [20]): 30
Blackgrass plant response rating (blackgrass; 125 g ai/ha): 10
Blackgrass plant response rating (blackgrass; 500 g ai/ha): 40
Wheat plant response rating (wheat; 125 g ai/ha): 10
Wheat plant response rating (wheat; 500 g ai/ha): 20
Oat, Wild plant response rating (wild oat; 125 g ai/ha): 20
Oat, Wild plant response rating (wild oat; 500 g ai/ha): 20
Rice plant response rating (rice [12]): 0
Sedge, Umbrella plant response rating [13]: 40
Ducksalad plant response rating (ducksalad): 10
Barnyardgrass plant response rating (barnyardgrass [14]): 30
